Experimental data taken from a melting point compilation (Tetko et al.; mined from patent text by program, amines drawn as free bases though some values may be those of a salt).

Row | melting point [°C] | SMILES
1 | 82 to 83 | C=CCOc1cc(-n2c(OC)nc(C(F)(F)C(F)(F)F)cc2=O)c(F)cc1Cl
2 | 140 to 142 | CC(C)CC(=O)c1c(-c2ccc3cc(OCC(=O)O)cc(Br)c3c2)oc2ccccc12
3 | 75 to 77 | C=CCC(=C)C(O)C(NC=O)C(=O)OC (centres undefined)
4 | 130 | CCn1c(OC)n[nH]c1=O
5 | 92.5 | CCCCOc1ccc(S(=O)(=O)C2(C(=O)O)CCN(Cc3cccc(Oc4ccccc4)c3)CC2)cc1
6 | > 300 | Cc1cc(O)n2nc(S(=O)(=O)O)nc2n1
7 | 198 to 199 | CC(C)OCc1nc2nccnc2c(=O)[nH]1
8 | 256 to 257 | CC(C)(C)OC(=O)Nc1cc(-c2nnc(CCc3cccc(F)c3)o2)ccn1
9 | 112 to 113 | COCCCS(=O)(=O)NC(=O)CCc1ccc(OCCOC)cc1Oc1ncc(C(F)(F)F)cc1Cl
10 | 116 to 117 | CC(=O)OCC1OC(OCCBr)C(OC(C)=O)C(OC(C)=O)C1OC(C)=O (centres undefined)
11 | 65 to 66 | COC(=O)Cn1c(C)cc(Sc2ccccc2)c(N)c1=O
12 | 128 to 129 | C#CCNC(=O)C(C#N)C(=O)C1CC1 (centres undefined)
13 | 114 to 115 | COC(C)c1ccc(O)cc1 (single isomer, unassigned; (+))
14 | 109 to 113 | CCCCCCC(C)OS(=O)(=O)NC(=O)Nc1c(C(C)C)cccc1C(C)C (centres undefined)
15 | 98 to 100 | CCOC(=O)c1cc(=O)c2c(OCC(O)COc3ccc(Cl)cc3)cccc2o1 (centres undefined)
16 | 146 | CC(CCC(=O)O)C1CCC2C3C(O)CC4CC(O[Si](C)(C)C(C)(C)C)CCC4(C)C3CC(O)C12C (centres undefined)
17 | 163 to 164 | CN1C(=O)N(c2nnc(C(C)(C)C)s2)C(=O)C1O (centres undefined)
18 | 74 to 75 | CC(=O)OCc1cn(-c2ccccc2)nc1OCc1ccccc1
19 | 218 to 219 | CS(=O)(=O)c1ccc(Oc2cc(OCc3ccccc3)c3[nH]c(C4=NCC(CC(=O)O)S4)cc3c2)cc1 (centres undefined)
20 | 115 | CC(C)(C)OC(=O)[C@@H]1CSC(C2CCCCC2)N1C(=O)CNC(=O)Nc1cccc(CC(=O)O)c1 (some centres undefined)
21 | 175 | CC(CS(=O)(=O)c1ccc(-c2ccc(C(F)(F)F)cc2)cc1)N(O)C=O (centres undefined)
22 | 174 to 175 | CCN(CC)CC(=O)N1c2ccccc2NC(=O)c2c1c(C)cn2C
23 | 111 to 112 | CCOCC(O)COc1ccc(NC(=O)CCS(C)(=O)=O)cc1 (centres undefined)
24 | 241 to 243 | Cc1c(C(=O)O)c[nH]c1C(=O)c1ccccc1
25 | 160 to 162 | CCOc1cc(CCNC(=O)Cn2c(C#N)ccc2-c2ccc3c(c2)C(C)(C)OC(=O)N3)ccc1OC

Row | melting point [°C] | SMILES
26 | 168 to 171 | CC(=O)C(Cl)=NNc1ccc(Cl)cc1
27 | 218 to 220 | CCOc1ccccc1-c1ccc(C(N)=O)c(=O)[nH]1
28 | 208 to 209 | N#CN=C(NCCO)NCc1ccc(-c2csc(N=C(N)N)n2)o1
29 | 269 to 270 | COc1cc(C)cc2nc(S(=O)(=O)Nc3c(Cl)cccc3Cl)nn12
30 | 75 to 77 | O=C(C=C(O)c1cccnc1)C1CCN(CCc2ccccc2)CC1
31 | 66 to 68 | CCOC(=O)c1ccc(CCCOCCCCCCNCC(O)c2cc(Cl)c(N)c(Cl)c2)cc1 (centres undefined)
32 | 73 to 74 | COCn1ncc2cc(C(=O)OC)ccc21
33 | 231 to 233 | COC(=O)c1ccc2ncc(C(=O)c3ccc(N4C[C@H](CNC(C)=O)OC4=O)cc3)n2c1
34 | 112 to 113 | CCSc1ccc(C(=O)O)nc1SCC
35 | 203 to 205 | O=C(NNC(=O)c1ccc(Oc2ccccc2)cc1)c1ccc(O)cc1
36 | 165 to 166 | CCOC(=O)c1cc(NCc2c(C)cccc2C)c2nc(C)n(OC)c2c1
37 | 133 to 134 | CCSCC(=O)c1cc(C(C)(C)C)c(O)c(C(C)(C)C)c1
38 | 136 to 138 | COc1ccc2c(c1)c(CC(=O)OCC(=O)O)c(C)n2C(=O)c1cccc(C(F)(F)F)c1
39 | 238 to 242 | Nc1nc2ccc3cc(S(=O)(=O)Nc4ccc(C(=O)N[C@@H](CCC(=O)O)C(=O)O)cc4)c(Br)cc3c2c(=O)[nH]1
40 | 191 to 192 | Cc1c(-c2ccccc2)oc2c(C(=O)CCC(=O)O)cccc2c1=O
41 | 138 to 140 | COC(=O)C1(C)CC(C(=O)Nc2ccc(Cl)cc2)=NN1c1ccc(Cl)cc1 (centres undefined)
42 | 87 to 88 | CC(=O)CSc1nc2ccccc2n1C
43 | 238 to 239 | Cc1ncn(Cc2ccc(NC(=O)C(F)(F)F)cc2C(F)(F)F)c1C
44 | 298 to 300 | CC1COc2c(N3CCN(C#N)CC3NC(=N)N)c(F)cc3c(=O)c(C(=O)O)cn1c23 (centres undefined)
45 | 178 | C/C(=C\c1ccc(-c2ccccc2)cc1)C(=O)O
46 | 80 to 81 | CN(C)C(=O)Cc1cccc(NC(=O)N(C)C)c1
47 | 96 to 98 | CCOC(=O)N1CCN(C2Cc3cc(C)ccc3Sc3ccccc32)CC1 (centres undefined)
48 | 92 to 98 | CC(=O)SCCC(=O)N1CCN(C)CC1C(=O)O (centres undefined)
49 | 184 to 185 | Cc1nc(-n2cnn(CCCC(F)(F)F)c2=O)sc1C(=O)NCc1cccnc1

Continued, compound first:

Row | SMILES | melting point [°C]
50 | CCCN(C(=O)OC(C)(C)C)C1CC=C(c2c[nH]c3cc([N+](=O)[O-])ccc23)CC1 (centres undefined) | 214 to 216
51 | O=C(O)c1cc(-c2ccnc(Nc3cccc(C(F)(F)F)c3)n2)ccn1 | 241 to 245
52 | CCc1cc2c(cc1CC)C(=O)C(N=[N+]=[N-])=CC2=O | 74 to 76
53 | CC(=Cc1ccc(-n2cnc3c2CCCC3)cc1)[N+](=O)[O-] | 147 to 149
54 | O=C1Cc2cc(CCN3CCN(c4nsc5ccccc45)CC3)ccc2N1 | 288
55 | c1ccc(CSc2nc3ccccc3[nH]2)cc1 | 185 to 186
56 | O=C(c1ccc(Cn2cnc3ccncc32)cc1)N1CCOCC1 | 143 to 144
57 | NS(=O)(=O)c1cccc(-c2cccc(-c3nc(-c4ccc(C(F)(F)F)nc4)cc(C(F)(F)F)n3)c2)c1 | 211
58 | O=C1NC(=C2CCCCC2)Sc2ccccc21 | 146 to 147
59 | O=c1c(CCl)c[nH]c2c([N+](=O)[O-])cccc12 | 228 to 235
60 | Cc1ccc(-c2ccccc2)cc1Cn1c(Cl)nn(C)c1=O | 116
61 | CC(=O)N1C[C@@H](P(c2ccc(C)cc2)c2ccc(C)cc2)[C@H](P(c2ccc(C)cc2)c2ccc(C)cc2)C1 | 164 to 167
62 | CCSC1(SCC)C(=O)CC2C3CCC4=CC(=O)C=CC4(C)C3(F)C(O)CC21C (centres undefined) | 268 to 270
63 | Cc1nc(-c2cc(Cc3ccccc3)no2)sc1C(=O)NCc1ccccc1 | 103 to 104
64 | Cc1ccc(NC(=O)c2cccc(C(F)(F)F)c2)cc1-c1ccc2ncsc2c1 | 94 to 96
65 | COc1ccc(N2CCN(c3c(C)c(C)c4c(c3C)C(O)C(C)(C)O4)CC2)cc1OC (centres undefined) | 150 to 151
66 | Nc1ccc(Sc2cccc3cnccc23)c([N+](=O)[O-])c1 | 222 to 227
67 | C#CC(C)(C)Oc1ccc2ncccc2c1 | 65 to 67
68 | CCOc1nnc2cc(Cl)ccc2n1 | 90 to 92
69 | Cc1ccccc1CC(=O)Nc1ccc(C(=O)N2Cc3cccn3Cc3ccccc32)cc1 | 198 to 200
70 | Cc1cc(C)cc(NCc2ccc3nc(NCCCN4CCOCC4)n(Cc4nc(C)ccc4O)c3c2)c1 | 199
71 | CN1C(=S)Nc2ccncc2S1(=O)=O | 195 to 198
72 | CCNC1CCc2c(ccc(OC)c2OC)C1O (centres undefined) | 125 to 128
73 | O=CC1=CC2=C(OC1)c1ccccc1S(=O)(=O)N2 | 108 to 110
74 | O=C1CC(c2cccc(-n3ccnn3)c2)=Nc2cc(O)c(-c3ccccc3F)cc2N1 | > 250

Row | SMILES | melting point [°C]
75 | O=C(Cc1cc(C(F)(F)F)ns1)c1ccc(Cl)cc1 | 109 to 110
76 | Cc1nn(C)c(C)c1NC(=S)n1ccc2cc(Cl)ccc21 | 165 to 166
77 | COc1c(SCCCN2CCC(Cc3ccccc3)CC2)ccnc1CSc1nc2ccccc2[nH]1 | 73 to 75
78 | CCc1nnc2ccc(-c3cccc(C(F)(F)F)c3)nn12 | 183 to 185
79 | CNc1c(SC(F)(F)F)c(C#N)nn1-c1c(Cl)cc(C(F)(F)F)cc1Cl | 208 to 210
80 | CCN(CC)CCN1C(=O)c2cscc2N(C)c2ccccc21 | 92 to 93
81 | COc1ccc(-c2c(Cl)c(CN3CCN(C(C)=O)CC3)nc3sc4c(c23)CCN(Cc2ccccc2)C4)cc1OC | 183 to 184
82 | Fc1cc(CC2(Cc3ccnc(F)c3)c3cccnc3-c3cccnc32)ccn1 | 134 to 135
83 | Cc1ccc(CCCO)c(NCc2ccc3nc(NCCCN4CCOCC4)n(Cc4cc(Br)ccc4O)c3c2)c1 | 134
84 | CC1CCc2c(N3CCCCC3)c(Cl)cc3c(=O)c(C(=O)O)cn1c23 (centres undefined) | 246 to 248
85 | O=C1c2ccccc2S(=O)(=O)N1CBr | 155 to 157
86 | O=C(Nc1ccc(Cl)c(C(F)(F)F)c1)Nc1ccc(Cl)cc1-c1nnn[nH]1 | 245 to 247
87 | CCOc1ccc(-c2nc(-c3cccc(C#N)n3)cs2)cc1OCC | 134 to 136
88 | NS(=O)(=O)c1cccc(-c2cccc(-c3nc(-c4ccc(C(F)(F)F)cc4)cc(C(F)F)n3)c2)c1 | 204
89 | O=Cc1cc2c(s1)CCCc1cc(=O)n(-c3ccc(Cl)cc3)nc1-2 | 170 to 172
90 | O=Cc1c2cccc(Cl)c2c(Cl)c2c(Cl)cccc12 | 118 to 120
91 | O=C(O)c1cc(Br)nc(Br)c1 | 179 to 187
92 | O=C(NNC(=O)c1occ(-c2ccccc2)c1-c1ccccc1)c1ccc(O)c(C(F)(F)F)c1 | 142 to 143
93 | Nc1ccccc1NCCCCCCCCCCCCNc1ccccc1N | 85 to 88
94 | Cc1c(N2C[C@H]3CCOC[C@@]3(N)C2)c(F)cc2c(=O)c(C(=O)O)cn([C@@H]3C[C@@H]3F)c12 | 158 to 160
95 | Cc1cccc(P(=O)(O)c2cccc(C)c2)c1 | 172
96 | CCCCc1nc2ccccn2c(=O)c1-c1ccc(Cl)cc1C | 105 to 107
97 | CCOC(=O)COc1ccc(SCc2cccc3nc(-c4ccc(C(F)(F)F)cc4)sc23)cc1C | 193 to 196
98 | CCCCOc1cc2c(Cl)c(C#N)cnc2cc1OCCOC | 128 to 130
99 | CC(=O)O[C@@H](c1cnnn1-c1ccccc1)[C@@H](CCN1CCC(N2CCCCC2=O)CC1)c1ccc(Cl)c(Cl)c1 (racemic) | 65 to 67
